Assay results from patent publication US7626044B2, “Triptolide derivatives and their uses” (priority 2002, dated 2009).

What was measured:
B lymphocyte = test: LPS induced B-lymphocyte proliferation ([3H]thymidine); format: cell-based, mouse; details: control 87373
Protocol: (§1) Mice were sacrificed by cervical dislocation, and spleens were collected under sterile conditions then teased through a nylon mesh. Erythrocytes were lysed. Cells were washed and resuspended at 5×10^6/ml in RPMI-1640 media containing 10% FBS. For one 96 well plate assay, 100 pt of cells, 50 μl of sample and 50 μl of ConA/LPS were added into each well with the final volume 200 μl. The control wells were set up with 50 μl of RPMI-1640 media instead of ConA/LPS.
(§2) Plates were incubated for 48 h (ConA) or 60 h (LPS), respectively, at 37° C., 5% CO2 in a humidified incubator. In the last 8 h of incubation, 25 μl (1.9×10^10 Bq) of [^3H]thymidine was added. After plates were incubated for 48 h, the plates (ConA) were stored at −20° C., then after another 12 h, the plates (LPS) were stored at −20° C.
(§3) At the end of incubation, pulsed cells were harvested on a glass filter using a cell harvester ([…]96®, TOMTEC) and allowed to dry. Incorporation of radioactive thymidine was determined by using liquid Scintillation and Luminescence Counters (MicroBeta Trilux®, PerkinElmer).

lymphocyte = test: MTT cytotoxic assay; format: cell-based, mouse; details: control 0.337
Protocol: Mice were sacrificed by cervical dislocation, and spleens were collected under sterile conditions then teased through a nylon mesh. Erythrocytes were lysed. Cells were washed and resuspended at 5×10^6/ml in RPMI-1640 media supplemented with 10% FBS.
For one 96 well plate assay, 90 μl of cells, 45 μl of sample and 45 μl of RPMI-1640 media with 10% FBS were added into each well with the final volume 180 μl. The negative control wells (containing 90 μl of RPMI-1640 media with 10% FBS and 90 pt of cells), blank control (180 μl of RPMI-1640 media with 10% FBS) were also performed. Incubate plate for 48 hours at 37° C., 5% CO2 in a humidified incubator. 18 μl of MTT solution (5 mg/ml) was added for 6-7 h.
90 μl of MTT lysis solution was added to each well followed by a further incubation at 37° C. for 6-7 h. And the absorbance was measured at 570 nm using a plate reader.

T lymphocyte = test: ConA induced T-lymphocyte proliferation ([3H]thymidine); format: cell-based, mouse; details: control 125789
Protocol: as §1, §2, §3

[1] = test system: DNFB-induced mouse DTH response; test: DNFB-induced mouse delayed type hypersensitivity response (DTH); format: in vivo; details: Table 8, i.p., Balb/c mice, dosage 1000 (mg/kg)
Protocol: Female Balb/c mice (age of 6-8 wk) were randomly divided into groups and immunized with 20 μl 0.5% DNFB solution in absolute acetone-olive oil (4:1) on each hind foot on day 0 and 1;
7-9 days after the initial immunization, mice were boosted with 10 μl 0.4% DNFB on both sides of the left ear, whereas the right ear was treated with vehicle alone;
Compounds were administered intraperitoneally (i.p.) or orally (p.o.) to the mice 1 h before DNFB booster immunization and 12 h later.
Ear swelling and other indexes were assessed 24-48 h after booster immunization.
Note: Female ICR mice (age of 6-8 wk) were immunized with 0.7% DNFB solution and boosted with 0.6% DNFB solution.

[2] = test system: anti-SRBC specific antibodies production by B lymphocytes; format: in vivo, mouse; details: Table 12, positive control given i.p., ICR mice, dosage 4 mg/kg

SMILES	melting point	Lymphocyte Proliferation (cpm) B cell (B lymphocyte; 10^−6 M)	Lymphocyte Proliferation (cpm) B cell (B lymphocyte; 10^−7 M)	Lymphocyte Proliferation (cpm) B cell (B lymphocyte; 10^−8 M)	Cytotoxicity OD Value (lymphocyte; 10^−6 M)	Cytotoxicity OD Value (lymphocyte; 10^−7 M)	Cytotoxicity OD Value (lymphocyte; 10^−8 M)	Lymphocyte Proliferation (cpm) T cell (T lymphocyte; 10^−6 M)	Lymphocyte Proliferation (cpm) T cell (T lymphocyte; 10^−7 M)	Lymphocyte Proliferation (cpm) T cell (T lymphocyte; 10^−8 M)	other results
CC(C)[C@]12O[C@H]1[C@@H]1O[C@@]13[C@@]1(C)CCC4=C(COC4=O)[C@@]14O[C@H]4[C@@H]1O[C@@]13C2=O [LLDT-16, (5R, 6S)-5,6-epoxytriptonide]	252 to 254 °C (dec.)	80768 cpm	82285 cpm	71877 cpm	0.304	0.337	0.372	76204 cpm	75599 cpm	89029 cpm	–
CC(C)[C@]12O[C@H]1[C@@H]1O[C@@]13[C@@]1(C)CCC4=C(COC4=O)[C@]1(O)[C@@H](O)[C@@H]1O[C@@]13C2=O [LLDT-17, cis-(5R, 6S)-5,6-dihydroxytriptonide]	266 to 268 °C (dec.)	82861 cpm	76376 cpm	73969 cpm	0.310	0.355	0.334	84825 cpm	67561 cpm	74069 cpm	–
CC(C)[C@]12O[C@H]1[C@@H]1O[C@]13[C@]1(O[C@H]1C=C1C4=C(CC[C@@]13C)C(=O)OC4)[C@H]2O [LLDT-19, Δ^5,6-dehydro-14-epitriptolide]	–	82989 cpm	70587 cpm	69690 cpm	0.340	0.340	0.346	79418 cpm	71177 cpm	76183 cpm	–
O=P1(N(CCCl)CCCl)NCCCO1 (stereo not drawn) [CTX, reference compound]	–	–	–	–	–	–	–	–	–	–	Body weight after i.p. ([1]; control 21.9): 21.1 g; Body weight before i.p. ([1]; control 22.4): 22.1 g; Ear swelling X ± SD ([1]; control 22.7 ± 2.1): 15.6 ± 8.1 mg; Right ear ([1]; control 26.4): 30.3 mg; Left ear ([1]; control 49.1): 45.9 mg; Spleen ([1]; control 154.0): 141.2 mg; QHS OD value ([2]; control 0.38): 0.12; C3 ([2]; control 7.9): 7.5 μg/10 μl; Body weight ([2]; control 23.4): 22.6 g; Thymus ([2]; control 28.8): 28.2 mg; Spleen ([2]; control 55.7): 50.7 mg/10 g; Total IgG ([2]; control 117): 101 μg/10 μl
CC(C)C12OC1C1OC13C1(OC1C(O)C1(O)C4=C(CCC13C)C(=O)OC4)C2O [LLDT-23, cis-(5R, 6S)-5,6-dihydroxy-14-epitriptolide]	–	99672 cpm	86481 cpm	76993 cpm	0.302	0.349	0.366	55614 cpm	104791 cpm	84713 cpm	–
CC(C)C12OC1C1OC13C1(C)CCC4=C(COC4=O)C1=CC1OC13C2O (stereo not drawn) [LLDT-18, Δ^5,6-dehydrotriptolide]	–	833 cpm	75147 cpm	79808 cpm	0.039	0.295	0.367	462 cpm	53513 cpm	92807 cpm	–
CC(C)C12OC1C1OC13C1(OC1C(O)C1(O)C4=C(CCC13C)C(=O)OC4)C2O [LLDT-22, cis-(5R, 6S)-5,6-dihydroxytriptolide]	–	16807 cpm	89706 cpm	84748 cpm	0.157	0.345	0.374	2662 cpm	68787 cpm	64367 cpm	–
CC(C)C12OC1C1OC13C1(OC1C1OC14C1=C(CCC43C)C(=O)OC1)C2O [LLDT-20, (5R, 6S)-5,6-epoxytriptolide]	–	63169 cpm	85145 cpm	78259 cpm	0.263	0.350	0.374	25344 cpm	54771 cpm	69785 cpm	–
CC(C)[C@]12O[C@H]1[C@@H]1O[C@@]13[C@@]1(C)CCC4=C(COC4=O)C1=C[C@@H]1O[C@@]13C2=O [LLDT-15, Δ^5,6-dehydrotriptonide]	242 to 244 °C (dec.)	30889 cpm	85240 cpm	77139 cpm	0.156	0.316	0.327	10296 cpm	63914 cpm	69613 cpm	–
CC(C)[C@]12O[C@H]1[C@@H]1O[C@]13[C@]1(O[C@H]1[C@@H]1O[C@@]14C1=C(CC[C@]34C)C(=O)OC1)[C@H]2O [LLDT-21, (5R, 6S)-5,6-epoxy-14-epitriptolide]	–	86610 cpm	75766 cpm	76181 cpm	0.361	0.332	0.359	97217 cpm	73513 cpm	83465 cpm	–
